The target of assay [1] is EGFR wildtype (WT) (Homo sapiens, UniProt P00533). In words: Biochemical EGFR kinase assay (Lance Ultra TR-FRET), wildtype. Summed up: (§1)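 In this biochemical assay, phosphorylation after a one-hour room-temperature reaction was detected with europium-labelled anti-phosphopeptide antibody at 2 nM final concentration.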
Assay [2] has as its target EGFR L858R/T790M/C797S (Homo sapiens, UniProt P00533, C797S/L858R/T790M). Briefly: Biochemical EGFR kinase assay (Lance Ultra TR-FRET), triple mutant L858R/T790M/C797S. Put shortly:
as §1

For assay [3], the target named is EGFR del19/T790M/C797S (Homo sapiens, UniProt P00533, C797S/DEL746-750/T790M). In words: Biochemical EGFR kinase assay (Lance Ultra TR-FRET), triple mutant del19/T790M/C797S. Summed up: as §1
A general note: Time-resolved FRET reads energy transfer from a long-lived donor to a nearby acceptor.

For assay [4], the target named is EGFR L858R/C797S (Homo sapiens, UniProt P00533, C797S/L858R). In words: Biochemical EGFR kinase assay (Lance Ultra TR-FRET), double mutant L858R/C797S. Put shortly:
as §1

For assay [5], the target named is EGFR del19/C797S (Homo sapiens, UniProt P00533, C797S/DEL746-750). Briefly: Biochemical EGFR kinase assay (Lance Ultra TR-FRET), double mutant del19/C797S. Summed up:
as §1

[6] abbreviates: IC50 WT (nM) 100 μM ATP, 100 μM ATP.
[7] abbreviates: Km ATP, read-out: IC50 WT (nM) Km ATP.
Setting [8] is: IC50 L858R/T790M/C797S (nM) 100 μM ATP, 100 μM ATP.
Setting [9] is: Km ATP, read-out: IC50 L858R/T790M/C797S (nM) Km ATP.
Setting [10] is: IC50 del19/T790M/C797S (nM) 100 μM ATP, 100 μM ATP.
Where [11] appears, read: Km ATP, read-out: IC50 del19/T790M/C797S (nM) Km ATP.
Where [12] appears, read: IC50 L858R/C797S (nM) 100 μM ATP, 100 μM ATP.
Where [13] appears, read: Km ATP, read-out: IC50 L858R/C797S (nM) Km ATP.
The mark [14] stands for this setting: IC50 del19/C797S (nM) 100 μM ATP, 100 μM ATP.
[15] abbreviates: Km ATP, read-out: IC50 del19/C797S (nM) Km ATP.

Like-named read-outs stand apart in the source and are kept apart here. Bounds are passed on as bounds.

Sequence of EGFR wildtype (WT) (P00533 25-1210): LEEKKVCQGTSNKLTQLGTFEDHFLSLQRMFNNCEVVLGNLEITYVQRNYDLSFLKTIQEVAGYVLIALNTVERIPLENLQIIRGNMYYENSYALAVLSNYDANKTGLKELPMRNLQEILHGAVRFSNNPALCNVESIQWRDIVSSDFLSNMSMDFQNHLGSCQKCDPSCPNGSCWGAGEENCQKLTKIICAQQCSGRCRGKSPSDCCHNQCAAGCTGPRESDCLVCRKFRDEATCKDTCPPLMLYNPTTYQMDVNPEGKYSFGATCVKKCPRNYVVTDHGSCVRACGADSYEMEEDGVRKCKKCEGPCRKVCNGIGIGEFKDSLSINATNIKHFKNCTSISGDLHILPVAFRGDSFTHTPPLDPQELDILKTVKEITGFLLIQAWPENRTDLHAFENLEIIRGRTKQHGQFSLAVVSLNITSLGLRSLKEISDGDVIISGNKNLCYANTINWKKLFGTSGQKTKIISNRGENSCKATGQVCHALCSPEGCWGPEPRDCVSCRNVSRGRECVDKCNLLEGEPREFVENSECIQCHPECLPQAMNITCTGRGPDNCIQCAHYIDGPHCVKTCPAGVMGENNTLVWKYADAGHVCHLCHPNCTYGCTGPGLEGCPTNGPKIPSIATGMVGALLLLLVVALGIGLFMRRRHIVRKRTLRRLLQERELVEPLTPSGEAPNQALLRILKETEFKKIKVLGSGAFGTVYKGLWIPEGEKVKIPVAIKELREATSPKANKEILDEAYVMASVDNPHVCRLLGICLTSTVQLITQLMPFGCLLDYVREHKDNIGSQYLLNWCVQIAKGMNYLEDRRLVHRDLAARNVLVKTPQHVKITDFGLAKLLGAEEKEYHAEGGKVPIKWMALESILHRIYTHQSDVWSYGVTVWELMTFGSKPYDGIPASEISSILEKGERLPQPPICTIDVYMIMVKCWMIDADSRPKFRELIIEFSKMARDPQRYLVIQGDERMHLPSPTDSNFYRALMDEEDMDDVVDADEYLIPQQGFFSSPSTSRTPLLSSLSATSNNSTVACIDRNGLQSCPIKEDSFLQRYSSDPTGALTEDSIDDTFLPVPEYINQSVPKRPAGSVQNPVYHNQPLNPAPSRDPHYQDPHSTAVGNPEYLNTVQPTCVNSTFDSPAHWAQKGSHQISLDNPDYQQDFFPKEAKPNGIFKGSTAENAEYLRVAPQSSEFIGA
Sequence of EGFR L858R/C797S (P00533 25-1210 C797S/L858R): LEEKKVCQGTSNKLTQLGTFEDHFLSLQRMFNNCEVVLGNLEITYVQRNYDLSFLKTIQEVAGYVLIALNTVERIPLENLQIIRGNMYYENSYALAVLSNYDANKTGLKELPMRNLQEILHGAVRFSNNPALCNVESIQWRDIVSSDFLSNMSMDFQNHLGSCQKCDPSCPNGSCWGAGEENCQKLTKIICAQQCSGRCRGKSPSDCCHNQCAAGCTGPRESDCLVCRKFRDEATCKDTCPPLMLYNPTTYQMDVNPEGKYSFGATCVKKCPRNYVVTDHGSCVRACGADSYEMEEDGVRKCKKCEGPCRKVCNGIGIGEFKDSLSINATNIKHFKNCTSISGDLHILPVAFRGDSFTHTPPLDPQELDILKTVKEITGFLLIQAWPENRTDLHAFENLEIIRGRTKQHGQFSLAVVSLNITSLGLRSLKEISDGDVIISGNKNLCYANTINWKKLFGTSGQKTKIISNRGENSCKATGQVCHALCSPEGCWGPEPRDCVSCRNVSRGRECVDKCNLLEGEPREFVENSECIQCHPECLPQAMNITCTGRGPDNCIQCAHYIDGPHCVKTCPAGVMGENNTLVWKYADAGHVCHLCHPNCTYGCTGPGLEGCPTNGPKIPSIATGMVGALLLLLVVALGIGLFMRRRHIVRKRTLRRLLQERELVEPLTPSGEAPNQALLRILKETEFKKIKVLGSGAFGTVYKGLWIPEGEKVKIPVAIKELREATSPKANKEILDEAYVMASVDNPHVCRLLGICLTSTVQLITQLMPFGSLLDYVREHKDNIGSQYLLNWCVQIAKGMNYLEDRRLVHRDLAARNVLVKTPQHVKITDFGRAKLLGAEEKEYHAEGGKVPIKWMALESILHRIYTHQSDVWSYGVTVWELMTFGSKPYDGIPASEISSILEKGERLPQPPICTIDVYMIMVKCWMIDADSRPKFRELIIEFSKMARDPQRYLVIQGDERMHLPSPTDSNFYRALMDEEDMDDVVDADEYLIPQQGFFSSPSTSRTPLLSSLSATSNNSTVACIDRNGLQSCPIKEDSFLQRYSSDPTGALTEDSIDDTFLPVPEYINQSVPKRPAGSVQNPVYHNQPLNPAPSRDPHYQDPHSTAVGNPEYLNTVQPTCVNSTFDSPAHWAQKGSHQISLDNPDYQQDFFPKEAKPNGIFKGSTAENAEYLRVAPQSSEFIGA
Sequence of EGFR del19/C797S (P00533 with tags, fused parts or gaps DEL746-750/C797S): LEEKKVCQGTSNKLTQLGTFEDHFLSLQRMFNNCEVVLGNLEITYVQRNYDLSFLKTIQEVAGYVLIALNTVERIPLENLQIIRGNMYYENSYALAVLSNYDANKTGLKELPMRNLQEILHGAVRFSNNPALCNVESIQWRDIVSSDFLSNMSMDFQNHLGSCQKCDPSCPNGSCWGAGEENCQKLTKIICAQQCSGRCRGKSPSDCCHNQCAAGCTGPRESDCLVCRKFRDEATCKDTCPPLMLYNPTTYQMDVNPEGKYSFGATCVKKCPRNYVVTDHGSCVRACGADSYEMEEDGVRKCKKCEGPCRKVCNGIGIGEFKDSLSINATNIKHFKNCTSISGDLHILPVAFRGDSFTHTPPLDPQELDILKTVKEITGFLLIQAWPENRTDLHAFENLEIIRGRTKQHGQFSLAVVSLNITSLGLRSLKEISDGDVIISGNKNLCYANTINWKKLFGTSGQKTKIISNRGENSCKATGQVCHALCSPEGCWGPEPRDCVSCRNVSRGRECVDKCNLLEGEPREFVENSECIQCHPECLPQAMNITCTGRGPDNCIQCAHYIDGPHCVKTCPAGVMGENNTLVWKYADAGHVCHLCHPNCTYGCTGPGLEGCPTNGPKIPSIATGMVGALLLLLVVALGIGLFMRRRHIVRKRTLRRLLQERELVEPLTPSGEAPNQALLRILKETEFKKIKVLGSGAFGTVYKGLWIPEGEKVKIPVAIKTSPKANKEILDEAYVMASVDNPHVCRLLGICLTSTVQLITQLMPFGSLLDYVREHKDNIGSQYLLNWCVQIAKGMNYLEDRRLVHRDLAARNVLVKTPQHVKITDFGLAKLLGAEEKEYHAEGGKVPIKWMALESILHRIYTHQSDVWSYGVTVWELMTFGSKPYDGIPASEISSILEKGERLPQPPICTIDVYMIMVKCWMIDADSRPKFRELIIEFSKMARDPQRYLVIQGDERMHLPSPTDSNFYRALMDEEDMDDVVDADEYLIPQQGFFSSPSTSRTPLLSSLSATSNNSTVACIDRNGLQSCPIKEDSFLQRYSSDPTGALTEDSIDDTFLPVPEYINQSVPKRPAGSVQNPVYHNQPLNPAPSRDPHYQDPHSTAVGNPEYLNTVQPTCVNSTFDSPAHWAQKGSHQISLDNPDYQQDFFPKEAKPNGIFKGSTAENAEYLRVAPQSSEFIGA
Sequence of EGFR del19/T790M/C797S (P00533 with tags, fused parts or gaps DEL746-750/T790M/C797S): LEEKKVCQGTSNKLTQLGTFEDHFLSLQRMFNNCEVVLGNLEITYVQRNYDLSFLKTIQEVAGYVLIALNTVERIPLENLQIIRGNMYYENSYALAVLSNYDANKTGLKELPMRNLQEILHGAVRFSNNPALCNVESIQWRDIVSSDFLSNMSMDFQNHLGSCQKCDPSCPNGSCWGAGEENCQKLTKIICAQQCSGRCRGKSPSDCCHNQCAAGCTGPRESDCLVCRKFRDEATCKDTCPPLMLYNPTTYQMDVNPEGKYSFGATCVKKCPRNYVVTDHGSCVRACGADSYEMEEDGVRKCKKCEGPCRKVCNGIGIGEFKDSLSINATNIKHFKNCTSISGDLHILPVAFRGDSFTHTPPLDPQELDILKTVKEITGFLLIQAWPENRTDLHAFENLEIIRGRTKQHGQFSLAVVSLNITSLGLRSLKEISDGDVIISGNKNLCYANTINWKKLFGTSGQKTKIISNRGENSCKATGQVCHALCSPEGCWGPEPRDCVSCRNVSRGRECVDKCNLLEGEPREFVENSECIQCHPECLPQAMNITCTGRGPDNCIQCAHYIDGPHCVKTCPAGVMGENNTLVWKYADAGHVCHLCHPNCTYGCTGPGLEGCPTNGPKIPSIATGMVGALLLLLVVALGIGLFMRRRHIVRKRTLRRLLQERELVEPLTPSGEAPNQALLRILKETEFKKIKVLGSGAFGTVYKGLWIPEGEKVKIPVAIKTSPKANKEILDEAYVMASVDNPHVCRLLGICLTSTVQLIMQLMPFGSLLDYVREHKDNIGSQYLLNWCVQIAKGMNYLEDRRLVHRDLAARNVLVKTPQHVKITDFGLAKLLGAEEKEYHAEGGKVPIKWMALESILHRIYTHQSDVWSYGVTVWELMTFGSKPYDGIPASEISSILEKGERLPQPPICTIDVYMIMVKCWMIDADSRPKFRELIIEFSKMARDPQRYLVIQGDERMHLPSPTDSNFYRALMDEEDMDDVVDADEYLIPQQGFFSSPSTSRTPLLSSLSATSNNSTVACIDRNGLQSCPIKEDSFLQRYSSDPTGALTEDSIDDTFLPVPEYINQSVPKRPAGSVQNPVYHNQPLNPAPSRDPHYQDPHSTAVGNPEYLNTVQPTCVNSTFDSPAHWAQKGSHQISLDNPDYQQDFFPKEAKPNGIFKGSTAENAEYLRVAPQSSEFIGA

On to `O=S(=O)(C1CC1)n1cc(-c2nccc(Nc3cc(N[C@H]4CC[C@@H](O)CC4)c(-c4ccco4)cn3)n2)cn1` [Example 83, (1s,4s)-4-((2-((2-(1-(Cyclopropylsulfonyl)-1H-pyrazol-4-yl)pyrimidin-4-yl)amino)-5-(furan-2-yl)pyridin-4-yl)amino)cyclohexan-1-ol], for which the IC50 in assay [1] (setting [6]) is > 10000 nM; in assay [1] (setting [7]), 8.6 nM; in assay [2] (setting [8]) it was 0.7 nM; in assay [2] (setting [9]) it was 0.3 nM; in assay [3] (setting [10]), 0.6 nM; in assay [3] (setting [11]), 0.3 nM. Further, the IC50 came to 18 nM in assay [4] (setting [12]), 0.7 nM in assay [4] (setting [13]), 1.9 nM in assay [5] (setting [14]) and 0.8 nM in assay [5] (setting [15]).

Turning to `Cn1ccc(-c2cnc(Nc3ccnc(-c4cnn(S(=O)(=O)C5CC5)c4)n3)cc2NC2CCCC(NCC(F)F)C2)n1` (centres unmarked) [Example 224, N^2-(2-(1-(Cyclopropylsulfonyl)-1H-pyrazol-4-yl)pyrimidin-4-yl)-N^4-(3-((2,2-difluoroethyl)amino)cyclohexyl)-5-(1-methyl-1H-pyrazol-3-yl)pyridine-2,4-diamine], the IC50 in assay [1] (setting [6]) is > 10000 nM; in assay [1] (setting [7]), 37.8 nM; in assay [2] (setting [8]), 0.7 nM; in assay [2] (setting [9]), 0.3 nM; in assay [3] (setting [10]) it was 0.7 nM; in assay [3] (setting [11]), 0.5 nM. Moreover, the IC50 worked out at 132 nM in assay [4] (setting [12]), 6.6 nM in assay [4] (setting [13]), 4.7 nM in assay [5] (setting [14]) and 3.3 nM in assay [5] (setting [15]).

Regarding `O=S(=O)(C1CC1)n1cc(-c2nccc(Nc3cc(NC4CCC5(CC4)CNC5)c(-c4ccn(C(F)F)n4)cn3)n2)cn1` [Example 27, N^2-(2-(1-(Cyclopropylsulfonyl)-1H-pyrazol-4-yl)pyrimidin-4-yl)-5-(1-(difluoromethyl)-1H-pyrazol-3-yl)-N^4-(2-azaspiro[3.5]nonan-7-yl)pyridine-2,4-diamine], the IC50 in assay [1] (setting [6]) came to 162 nM; in assay [1] (setting [7]), 0.7 nM; in assay [2] (setting [8]), 0.4 nM; in assay [2] (setting [9]), 0.2 nM; in assay [3] (setting [10]) it was 0.6 nM; in assay [3] (setting [11]) it was 0.7 nM. Moreover, the IC50 in assay [4] (setting [12]) amounted to 2.2 nM; in assay [4] (setting [13]) it was 0.5 nM; in assay [5] (setting [14]) it was 0.3 nM; in assay [5] (setting [15]), 0.2 nM.

As for `O=S(=O)(C1CC1)n1cc(-c2nccc(Nc3cc(OC4CCC(O)CC4)c(-c4ccn(C(F)F)n4)cn3)n2)cn1` (centres unmarked) [Example 66, 4-((2-((2-(1-(Cyclopropylsulfonyl)-1H-pyrazol-4-yl)pyrimidin-4-yl)amino)-5-(1-(difluoromethyl)-1H-pyrazol-3-yl)pyridin-4-yl)oxy)cyclohexan-1-ol], the IC50 in assay [1] (setting [6]) is > 10000 nM; in assay [1] (setting [7]) it was 38.9 nM; in assay [2] (setting [8]), 2.7 nM; in assay [2] (setting [9]), 0.3 nM; in assay [3] (setting [10]) it was 0.4 nM; in assay [3] (setting [11]), 0.3 nM. Besides, the IC50 in assay [4] (setting [12]) was 80.1 nM; in assay [4] (setting [13]), 5 nM; in assay [5] (setting [14]), 4.5 nM; in assay [5] (setting [15]), 7.7 nM.

`C[C@]1(O)CC[C@@H](Nc2cc(Nc3ccnc(-c4cnn(C5CC5)c4)n3)ncc2-c2ccn(C(F)F)n2)CC1` [Example 140, (1s,4s)-4-((2-((2-(1-Cyclopropyl-1H-pyrazol-4-yl)pyrimidin-4-yl)amino)-5-(1-(difluoromethyl)-1H-pyrazol-3-yl)pyridin-4-yl)amino)-1-methylcyclohexan-1-ol]: the IC50 in assay [1] (setting [6]) came to 8960 nM; in assay [1] (setting [7]) it was 137 nM; in assay [2] (setting [8]), 3.4 nM; in assay [2] (setting [9]), 1.1 nM; in assay [3] (setting [10]), 3.7 nM; in assay [3] (setting [11]), 1 nM. Moreover, the IC50 in assay [4] (setting [12]) was found to be 91.5 nM; in assay [4] (setting [13]), 7.1 nM; in assay [5] (setting [14]), 37.2 nM; in assay [5] (setting [15]), 27.3 nM.

Turning to `Cn1ccc(-c2cnc(Nc3ccnc(-c4cnn(S(=O)(=O)C5CC5)c4)n3)cc2NCC2(CO)COC2)n1` [Example 228, (3-(((2-((2-(1-(Cyclopropylsulfonyl)-1H-pyrazol-4-yl)pyrimidin-4-yl)amino)-5-(1-methyl-1H-pyrazol-3-yl)pyridin-4-yl)amino)methyl)oxetan-3-yl)methanol], the IC50 in assay [1] (setting [6]) came out at 2360 nM; in assay [1] (setting [7]), 3.3 nM; in assay [2] (setting [8]) it was 0.2 nM; in assay [2] (setting [9]), 0.1 nM; in assay [3] (setting [10]) it was 0.2 nM; in assay [3] (setting [11]), 0.1 nM. The IC50 in assay [4] (setting [12]) is 24.5 nM; in assay [4] (setting [13]), 0.9 nM; in assay [5] (setting [14]), 0.8 nM; in assay [5] (setting [15]), 0.6 nM.

In the case of `O=S(=O)(C1CC1)n1cc(-c2nccc(Nc3cc(NC[C@H]4C[C@H](O)C4)c(-c4ccn(C(F)F)n4)cn3)n2)cn1` [Example 34, (1r,3r)-3-(((2-((2-(1-(Cyclopropylsulfonyl)-1H-pyrazol-4-yl)pyrimidin-4-yl)amino)-5-(1-(difluoromethyl)-1H-pyrazol-3-yl)pyridin-4-yl)amino)methyl)cyclobutan-1-ol], the IC50 in assay [1] (setting [6]) is > 10000 nM; in assay [1] (setting [7]), 19.4 nM; in assay [2] (setting [8]), 1.6 nM; in assay [2] (setting [9]), 0.2 nM; in assay [3] (setting [10]), 0.9 nM; in assay [3] (setting [11]), 0.4 nM. For the same molecule, the IC50 in assay [4] (setting [12]) turned out to be 53.3 nM; in assay [4] (setting [13]) it was 2 nM; in assay [5] (setting [14]) it was 4.2 nM; in assay [5] (setting [15]) it was 1.9 nM.

Consider `Cn1nc(-c2cnc(Nc3nc(-c4cnn(S(=O)(=O)C5CC5)c4)ncc3F)cc2N[C@H]2CC[C@@](C)(O)CC2)cc1C(F)(F)F` [Example 328, (1s,4s)-4-((2-((2-(1-(Cyclopropylsulfonyl)-1H-pyrazol-4-yl)-5-fluoropyrimidin-4-yl)amino)-5-(1-methyl-5-(trifluoromethyl)-1H-pyrazol-3-yl)pyridin-4-yl)amino)-1-methylcyclohexan-1-ol], for which the IC50 in assay [1] (setting [6]) was > 10000 nM; in assay [1] (setting [7]), 110 nM; in assay [2] (setting [8]) it was 6.5 nM; in assay [2] (setting [9]) it was 2 nM; in assay [3] (setting [10]) it was 8 nM; in assay [3] (setting [11]), 4.8 nM. The IC50 in assay [4] (setting [12]) was determined as 378 nM; in assay [4] (setting [13]) it was 19.5 nM; in assay [5] (setting [14]) it was 11.5 nM; in assay [5] (setting [15]), 9.3 nM.

Turning to `Cn1ccc(-c2cnc(Nc3ccnc(-c4cnn(S(=O)(=O)C5CC5)c4)n3)cc2NC[C@H]2CC[C@H](O)CC2)n1` [Example 47, (1r,4r)-4-(((2-((2-(1-(Cyclopropylsulfonyl)-1H-pyrazol-4-yl)pyrimidin-4-yl)amino)-5-(1-methyl-1H-pyrazol-3-yl)pyridin-4-yl)amino)methyl)cyclohexan-1-ol], the IC50 was > 10000 nM in assay [1] (setting [6]); 4.5 nM in assay [1] (setting [7]); 0.5 nM in assay [2] (setting [8]); 0.1 nM in assay [2] (setting [9]); 0.6 nM in assay [3] (setting [10]); 0.6 nM in assay [3] (setting [11]). The IC50 in assay [4] (setting [12]) came to 6.5 nM; in assay [4] (setting [13]), 0.8 nM; in assay [5] (setting [14]), 0.8 nM; in assay [5] (setting [15]), 0.5 nM.

For the molecule `O=S(=O)(C1CC1)n1cc(-c2nccc(Nc3cc(N[C@H]4CC[C@@H](F)CC4)c(-c4ccn(C(F)F)n4)cn3)n2)cn1` [Example 151, N^2-(2-(1-(Cyclopropylsulfonyl)-1H-pyrazol-4-yl)pyrimidin-4-yl)-5-(1-(difluoromethyl)-1H-pyrazol-3-yl)-N^4-((1s,4s)-4-fluorocyclohexyl)pyridine-2,4-diamine], the IC50 in assay [1] (setting [7]) was 72 nM; in assay [2] (setting [9]), 0.9 nM; in assay [3] (setting [11]) it was 1.6 nM; in assay [4] (setting [13]) it was 4.7 nM; in assay [5] (setting [15]), 43.5 nM.

Turning to `CN(C)CCCn1ccc(-c2cnc(Nc3ccnc(-c4cnn(S(=O)(=O)C5CC5)c4)n3)cc2NCC2(CO)COC2)n1` [Example 279, (3-(((2-((2-(1-(Cyclopropylsulfonyl)-1H-pyrazol-4-yl)pyrimidin-4-yl)amino)-5-(1-(3-(dimethylamino)propyl)-1H-pyrazol-3-yl)pyridin-4-yl)amino)methyl)oxetan-3-yl)methanol], the IC50 in assay [1] (setting [6]) amounted to 4690 nM; in assay [1] (setting [7]) it was 4.9 nM; in assay [2] (setting [8]), 0.4 nM; in assay [2] (setting [9]), 0.3 nM; in assay [3] (setting [10]) it was 0.3 nM; in assay [3] (setting [11]), 0.5 nM. Moreover, the IC50 in assay [4] (setting [12]) amounted to 14.2 nM; in assay [4] (setting [13]) it was 0.6 nM; in assay [5] (setting [14]) it was 1 nM; in assay [5] (setting [15]), 0.6 nM.

Consider `Cc1nn(CC(F)(F)F)cc1-c1nccc(Nc2cc(N[C@H]3CC[C@@H](CCO)CC3)c(-c3cc(C(F)(F)F)n(C)n3)cn2)n1` [Example 334, 2-((1s,4s)-4-((2-((2-(3-Methyl-1-(2,2,2-trifluoroethyl)-1H-pyrazol-4-yl)pyrimidin-4-yl)amino)-5-(1-methyl-5-(trifluoromethyl)-1H-pyrazol-3-yl)pyridin-4-yl)amino)cyclohexyl)ethan-1-ol], for which the IC50 in assay [1] (Km ATP, read-out: IC50 WT, Km ATP) worked out at 24.6 nM; in assay [2] (Km ATP, read-out: IC50 L858R/T790M/C797S, Km ATP), 2.8 nM; in assay [3] (Km ATP, read-out: IC50 del19/T790M/C797S, Km ATP) it was 4.2 nM; in assay [4] (Km ATP, read-out: IC50 L858R/C797S, Km ATP) it was 17.1 nM; in assay [5] (Km ATP, read-out: IC50 del19/C797S, Km ATP), 41.2 nM.
